Measurements published in PMC11500008, “Novel quinazolin-4-one based derivatives bearing 1,2,3-triazole and glycoside moieties as potential cytotoxic agents through dual EGFR and VEGFR-2 inhibitory activity” (Scientific Reports, 2024).
Values joined by “and” are separate entries in the source; they are usually repeats but may differ in a detail not shown here. Equal values may be shown once. Read-outs that look alike come from different tables or passages of the source.

Experiments:
MCF-7 cell line = assay: MTT cytotoxicity assay, MCF-7; type: cell-based; conditions: Homo sapiens, read-out: IC50 (mean±SD) MCF-7
Text: (§1) The recently incorporated quinazolinone-based targets 1–4, 6–13 underwent evaluation for their cytotoxic effects with in vitro employing MTT technique, according to the procedure that has been published[48]–[50], utilizing human fibroblast-derived BJ-1 normal cell line, and human cancer liver HepG-2, breast MCF-7, and colon HCT-116 cell lines. These cell lines were purchased from Karolinska Center, Department of Oncology and Pathology, Karolinska Institute and Hospital, Stockholm, Sweden, There were further details in the supplemental file.
(§2) The cell lines were obtained from Karolinska Center, Department of Oncology and Pathology, Karolinska Institute and Hospital, Stockholm, Sweden as follows: human liver HepG-2, breast MCF-7, and colorectal HCT-116 cancer cell lines and human fibroblast-derived BJ-1 normal cell line. Exponentially, cells were placed in 10^4 cells/ well for 24 h, and then add fresh medium which containing different concentration of the tested sample. Serial two-fold dilution of the tested sample were added using a multichannel pipette. Moreover, all cells were cultivated at 37 °C, 5% CO2 and 95% humidity. Also, incubation of control cells occurred at 37 °C. However, after incubation for 24 h different concentrations of sample (25, 12.5, 6.25 and 3.125 µM) were added and continued the incubation for 48 h, then, add the crystal violet solution 1% to each well for 0.5 h to examine viable cells. Rinse the wells using water until no stain. After that, add 30% glacial acetic acid to all wells with shaking plates on Microplate reader (TECAN, Inc.) to measure the absorbance, using a test wavelength of 490 nm. Besides, compare the treated samples with the control cell. The cytotoxicity was estimated by IC50 in (μM), the concentration that inhibits 50% of growth of cancer cell.

BJ-1 normal cell line = assay: MTT cytotoxicity assay, normal BJ-1 fibroblasts (safety profile); type: cell-based; conditions: Homo sapiens, read-out: IC50 (mean±SD) BJ-1
Method: […]. The safety profiles of all derivatives were assessed through cytotoxic evaluation using human fibroblast-derived BJ-1 normal cell lines. […].
as §1, §2

HCT-116 cell line = assay: MTT cytotoxicity assay, HCT-116; type: cell-based; conditions: Homo sapiens, read-out: IC50 (mean±SD) HCT-116
Text: as §1, §2

HepG-2 cell line = assay: MTT cytotoxicity assay, HepG-2; type: cell-based; conditions: Homo sapiens, read-out: IC50 (mean±SD) HepG-2
Text: as §1, §2

VEGFR-2 = VEGFR-2 (Homo sapiens, UniProt P35968); assay: In vitro VEGFR-2 inhibition assay (ELISA); conditions: read-out: IC50 (mean ± SD) VEGFR-2; average of three values
Chain of VEGFR-2 (P35968 20-1356): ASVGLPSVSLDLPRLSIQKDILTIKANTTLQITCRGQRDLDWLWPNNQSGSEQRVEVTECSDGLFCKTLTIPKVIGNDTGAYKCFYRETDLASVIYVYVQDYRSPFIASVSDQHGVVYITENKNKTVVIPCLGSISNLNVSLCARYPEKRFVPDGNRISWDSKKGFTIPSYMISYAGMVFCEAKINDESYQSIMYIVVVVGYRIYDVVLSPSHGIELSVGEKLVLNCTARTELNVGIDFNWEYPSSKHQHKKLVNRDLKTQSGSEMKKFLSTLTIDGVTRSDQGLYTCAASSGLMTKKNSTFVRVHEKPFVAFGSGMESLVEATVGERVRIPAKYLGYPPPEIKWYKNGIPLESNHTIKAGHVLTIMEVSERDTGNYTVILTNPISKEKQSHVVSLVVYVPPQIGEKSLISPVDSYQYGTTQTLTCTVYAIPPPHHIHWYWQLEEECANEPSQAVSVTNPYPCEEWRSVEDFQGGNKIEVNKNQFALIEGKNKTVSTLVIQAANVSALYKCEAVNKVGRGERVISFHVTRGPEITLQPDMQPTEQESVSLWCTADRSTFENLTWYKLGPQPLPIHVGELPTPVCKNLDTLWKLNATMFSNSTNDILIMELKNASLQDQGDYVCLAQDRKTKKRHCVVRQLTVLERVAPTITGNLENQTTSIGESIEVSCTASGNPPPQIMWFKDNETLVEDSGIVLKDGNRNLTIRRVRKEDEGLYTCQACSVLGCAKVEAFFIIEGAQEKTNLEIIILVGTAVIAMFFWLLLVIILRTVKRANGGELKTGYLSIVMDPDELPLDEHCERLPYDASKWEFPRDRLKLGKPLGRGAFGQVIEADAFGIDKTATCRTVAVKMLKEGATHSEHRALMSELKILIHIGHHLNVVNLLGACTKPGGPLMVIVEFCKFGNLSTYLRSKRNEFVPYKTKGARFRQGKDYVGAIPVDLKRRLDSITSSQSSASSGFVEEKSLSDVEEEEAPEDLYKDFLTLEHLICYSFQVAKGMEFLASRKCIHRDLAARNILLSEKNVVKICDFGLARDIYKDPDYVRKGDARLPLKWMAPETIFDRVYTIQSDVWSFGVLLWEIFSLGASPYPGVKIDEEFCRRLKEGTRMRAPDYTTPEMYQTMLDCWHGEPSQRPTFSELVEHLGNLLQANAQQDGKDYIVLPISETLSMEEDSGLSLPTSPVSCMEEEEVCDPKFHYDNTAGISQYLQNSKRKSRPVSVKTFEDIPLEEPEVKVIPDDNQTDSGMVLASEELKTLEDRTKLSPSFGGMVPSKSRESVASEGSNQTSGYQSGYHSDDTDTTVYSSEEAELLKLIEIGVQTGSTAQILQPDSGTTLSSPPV

EGFR = EGFR (Homo sapiens, UniProt P00533); assay: In vitro EGFR inhibition assay (Kinase-Glo luminescence)
Chain of EGFR (P00533 25-1210): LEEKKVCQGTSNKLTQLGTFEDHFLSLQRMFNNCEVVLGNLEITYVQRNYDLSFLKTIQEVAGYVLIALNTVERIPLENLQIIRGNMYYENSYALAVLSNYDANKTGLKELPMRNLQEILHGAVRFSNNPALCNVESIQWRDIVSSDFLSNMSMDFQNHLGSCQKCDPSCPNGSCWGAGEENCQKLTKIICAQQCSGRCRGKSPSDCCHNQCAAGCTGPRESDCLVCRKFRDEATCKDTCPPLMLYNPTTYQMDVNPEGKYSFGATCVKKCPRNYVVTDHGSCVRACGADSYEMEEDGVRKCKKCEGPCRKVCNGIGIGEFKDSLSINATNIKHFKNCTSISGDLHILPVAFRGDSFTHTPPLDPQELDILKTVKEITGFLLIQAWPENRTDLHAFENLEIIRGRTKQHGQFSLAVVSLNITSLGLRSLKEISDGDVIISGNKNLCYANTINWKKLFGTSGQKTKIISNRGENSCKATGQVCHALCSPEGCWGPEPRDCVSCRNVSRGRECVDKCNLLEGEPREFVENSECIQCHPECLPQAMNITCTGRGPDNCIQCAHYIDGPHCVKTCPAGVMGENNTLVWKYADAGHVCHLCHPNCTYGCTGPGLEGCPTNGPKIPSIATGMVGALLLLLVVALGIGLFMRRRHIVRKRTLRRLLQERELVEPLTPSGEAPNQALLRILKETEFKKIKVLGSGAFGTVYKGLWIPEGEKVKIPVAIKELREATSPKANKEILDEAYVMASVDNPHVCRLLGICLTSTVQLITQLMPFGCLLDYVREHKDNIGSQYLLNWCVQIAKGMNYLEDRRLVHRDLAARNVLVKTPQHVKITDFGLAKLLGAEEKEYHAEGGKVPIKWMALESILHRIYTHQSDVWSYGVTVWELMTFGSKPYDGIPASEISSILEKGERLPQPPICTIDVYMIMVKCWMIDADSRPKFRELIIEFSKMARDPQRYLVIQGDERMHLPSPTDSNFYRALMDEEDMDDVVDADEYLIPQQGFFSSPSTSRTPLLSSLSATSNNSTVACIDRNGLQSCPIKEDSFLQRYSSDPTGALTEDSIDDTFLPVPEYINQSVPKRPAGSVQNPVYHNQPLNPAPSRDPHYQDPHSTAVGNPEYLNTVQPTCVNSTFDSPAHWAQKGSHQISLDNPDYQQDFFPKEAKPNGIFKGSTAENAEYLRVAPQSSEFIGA

Bcl-2 = Bcl-2 level in HCT-116 cells; type: cell-based, human
Text: (§3) The methods previously described for the appealing quinazolinone-1,2,3-triazole glycoside 13 was used to clearly show the levels of p53, Bax, Bcl-2, and in HCT-116 cells.
(§4) The levels of the apoptotic marker Bax and anti-apoptotic marker Bcl-2 were estimated using BIO RAD iScript TM One-Step RT-PCR kit with SYBR® Green. The procedure of the used kit was done according to the manufacturer’s instructions.

HCT-116 cells [1] = assay: Apoptosis analysis by annexin V-FITC/PI flow cytometry; type: cell-based, human; conditions: 5.40 µM, 24 h
Method: (§5) The most powerful cytotoxic derivative, quinazolinone-1,2,3-triazole glycoside 13, underwent 24-hour treatment at a dose of 5.40 µM to find out if it caused cell death by the apoptotic pathway in HCT-116 cells. Using annexin-V labeling, flow cytometry was employed to further analyze the cells (Figs. 4, 5 and 6).
(§6) The examination of apoptosis and the interpretation of the cell cycle were described[37] utilizing flow cytometry. HCT-116 cells were treated with quinacolinone-1,2,3-triazole glycoside 13 for a full day, and after that, the cells were cultured at 37 °C. There were more details added to supporting documentation .
(§7) Cell cycle analysis and apoptosis study were carried out using flow cytometry. HCT-116 cells were seeded at 8×10^4 and incubated at 37°C in 5% CO2 overnight. After treatment with the tested compound 10 for 24 h, cell pellets were collected and centrifuged (300 g, 5 min). For cell cycle analysis cell pellets were fixed with 70% ethanol on ice for 15 min and collected again. The pellets were incubated with propidium iodide (PI) staining solution at room temperature for 1 h and analyzed by a Gallios flow cytometer (Beckman Coulter, Brea, CA, USA). Apoptosis detection was carried out by FITC AnnexinV/PI commercial kit (Becton Dickenson, Franklin Lakes, NJ, USA) following the manufacturer protocol. The samples were analyzed by fluorescence-activated cell sorting (FACS) with a Gallios flow cytometer (Beckman Coulter, Brea, CA, USA) within 1 h after staining. Data were analyzed using Kaluza v 1.2 (Beckman Coulter).

HCT-116 cells [2] = assay: Cell cycle analysis by flow cytometry (PI); type: cell-based, human
Method: as §5, §6, §7

Bax = Bax level in HCT-116 cells; type: cell-based, human
Text: as §3, §4

p53 = p53 level in HCT-116 cells (ELISA); type: cell-based, human
Method: as §3
Human p53 present in HCT-116 cells was determined; using Human p53 ELISA-Kit (CS0070 Sigma) read using spectrophotometer at 450 nm against untreated control cells (negative control) applying the standard protocols of the manufacturers. The samples or standard having human p53 bind to antibodies adsorbed to the microwells. Addition of biotin-conjugated was followed by incubation and addition of dispense of unbound biotin-conjugated streptavidin HRP. Then, the reaction was terminated by adding acid, and the absorbance was measured at 450 nm.

[3] = MCF7, MCF-7 breast cancer cells, 48 h incubation, mean of three values
[4] = BJ-1 normal fibroblast-derived cells, 48 h incubation, mean of three values
[5] = HCT-116 colorectal cancer cells, 48 h incubation, mean of three values
[6] = HepG2, HepG-2 liver cancer cells, 48 h incubation, mean of three values

SMILES	IC50 (MCF-7 cell line; [3])	IC50 (BJ-1 normal cell line; [4])	IC50 (HCT-116 cell line; [5])	IC50 (HepG-2 cell line; [6])	IC50 (VEGFR-2)	IC50 (EGFR)	further results
O=c1c2ccccc2nc(S)n1-c1ccccc1 [Compound 1]	16.1 ± 1.1 µM	> 25 µM	18.6 ± 1.5 µM	21.9 ± 1.9 µM	–	–	–
Cn1c(S)nc2ccccc2c1=O [Compound 2]	14.9 ± 1.3 µM	> 25 µM	16.1 ± 1.3 µM	24.1 ± 3.1 µM	–	–	–
C#CCSc1nc2ccccc2c(=O)n1-c1ccccc1 [Compound 3]	15.9 ± 1.3 µM	> 25 µM	14.8 ± 1.6 µM	> 25 µM	–	–	–
C#CCSc1nc2ccccc2c(=O)n1C [Compound 4, 3-methyl-2-(prop-2-yn-1-ylthio)quinazolin-4(3 H)-one]	14.6 ± 1.1 µM	> 25 µM	13.5 ± 1.1 µM	21.9 ± 2.7 µM	–	–	melting point: 163 to 165 °C
CC(=O)OC[C@H]1O[C@@H](n2cc(CSc3nc4ccccc4c(=O)n3-c3ccccc3)nn2)[C@H](OC(C)=O)[C@@H](OC(C)=O)[C@H]1OC(C)=O [Compound 6, 2-(((1-[2,3,4,6-Tetra-O-acetyl-β-D-galactopyranosyl]-1 H-1,2,3-triazol-4-yl)methyl)thio)-3-phenylquinazolin-4(3 H)-one]	13.4 ± 1.2 µM	> 25 µM	3.2 ± 0.1 µM	19.2 ± 2.1 µM	32.25 ± 0.25 µM	18.63 ± 0.14 µM	melting point: 90 to 92 °C
CC(=O)OC[C@H]1O[C@@H](n2cc(CSc3nc4ccccc4c(=O)n3C)nn2)[C@H](OC(C)=O)[C@@H](OC(C)=O)[C@H]1OC(C)=O [Compound 7, 2-(((1-[2,3,4,6-Tetra-O-acetyl-β-D-galactopyranosyl]-1 H-1,2,3-triazol-4-yl)methyl)thio)-3-methylquinazolin-4(3 H)-one]	17.3 ± 0.5 µM	22.9 ± 3.2 µM	5.5 ± 0.1 µM	21.5 ± 2.5 µM	36.33 ± 0.17 µM	17.94 ± 0.1 µM	–
CC(=O)O[C@@H]1[C@@H](OC(C)=O)[C@H](OC(C)=O)CO[C@H]1n1cc(CSc2nc3ccccc3c(=O)n2-c2ccccc2)nn1 [Compound 8, 2-(((1-[2,3,4-tri-O-acetyl-β-D-xylopyranosyl]-1 H-1,2,3-triazol-4-yl)methyl)thio)-3-phenylquinazolin-4(3 H)-one]	14 ± 1.2 µM	> 25 µM	< 3.12 µM	21.4 ± 3.1 µM	28.4 ± 0.5 µM	21.38 ± 0.15 µM	melting point: 210 to 212 °C
CC(=O)O[C@@H]1[C@@H](OC(C)=O)[C@H](OC(C)=O)CO[C@H]1n1cc(CSc2nc3ccccc3c(=O)n2C)nn1 [Compound 9, 2-(((1-[2,3,4-tri-O-acetyl-β-D-xylopyranosyl]-1 H-1,2,3-triazol-4-yl)methyl)thio)-3-methylquinazolin-4(3 H)-one]	12.6 ± 1.3 µM	> 25 µM	3.2 ± 0.2 µM	22.9 ± 2.3 µM	30.6 ± 0.32 µM	23.05 ± 0.08 µM	melting point: 146 to 148 °C
O=c1c2ccccc2nc(SCc2cn([C@@H]3O[C@H](CO)[C@H](O)[C@H](O)[C@H]3O)nn2)n1-c1ccccc1 [Compound 10, 2-(((1-[β-D-Galactopyranosyl]-1 H-1,2,3-triazol-4-yl)methyl)thio)-3-phenylquinazolin-4(3 H)-one]	8.1 ± 0.6 µM	23.5 ± 3.1 µM	6.4 ± 0.4 µM	17.1 ± 1.1 µM	22.33 ± 0.1 µM	16.75 ± 0.05 µM	–
Cn1c(SCc2cn([C@@H]3O[C@H](CO)[C@H](O)[C@H](O)[C@H]3O)nn2)nc2ccccc2c1=O [Compound 11, 2-(((1-[β-D-Galactopyranosyl]-1 H-1,2,3-triazol-4-yl)methyl)thio)-3-methylquinazolin-4(3 H)-one]	5.7 ± 0.2 µM	> 25 µM	5.9 ± 0.1 µM	17.8 ± 2.1 µM	22.86 ± 0.13 µM	0.35 ± 0.11 µM	–
O=c1c2ccccc2nc(SCc2cn([C@@H]3OC[C@@H](O)[C@H](O)[C@H]3O)nn2)n1-c1ccccc1 [Compound 12, 2-(((1-[β-D-Xylopyranosyl]-1 H-1,2,3-triazol-4-yl)methyl)thio)-3-phenylquinazolin-4(3 H)-one]	6.9 ± 0.3 µM	24.7 ± 2.4 µM	3 ± 0.3 µM	15.1 ± 1.9 µM	13.63 ± 0.08 µM	15.88 ± 0.14 µM	–
Cn1c(SCc2cn([C@@H]3OC[C@@H](O)[C@H](O)[C@H]3O)nn2)nc2ccccc2c1=O [Compound 13, 2-(((1-[β-D-Xylopyranosyl]-1 H-1,2,3-triazol-4-yl)methyl)thio)-3-methylquinazolin-4(3 H)-one]	7.9 ± 0.3 µM	23.5 ± 2.3 µM	5.4 µM	18.2 ± 2.2 µM	3.2 ± 0.15 µM	0.31 ± 0.06 µM	Bcl-2 (Bcl-2; 24-hour treatment at IC50 5.40 µM, control 7.48): 3.15 ng/mL and 3.15 ± 0.22 ng/mL; reduction of Bcl-2 protein levels versus control (Bcl-2; 24 h, 5.40 µM): ~2.4 times; Apoptosis Late (HCT-116 cells [1]; DMSO control 0.14): 25.36%; Apoptosis Early (HCT-116 cells [1]; DMSO control 0.55): 7.42%; Necrosis (HCT-116 cells [1]; DMSO control 1.35): 3.53%; stage of cell cycle arrest (HCT-116 cells [2]): G1 stage; %G2/M (HCT-116 cells [2]; 5.40 µM, 24-hour treatment (Table S2 title: 48 h), control 13.24): 9.43%; %S (HCT-116 cells [2]; 5.40 µM, 24-hour treatment (Table S2 title: 48 h), control 32.81): 22.46%; %G0-G1 (HCT-116 cells [2]; 5.40 µM, 24-hour treatment (Table S2 title: 48 h), control 53.95): 68.11%; Bax/Bcl-2 (Bax; 24-hour treatment at 5.40 µM, control 4.53): 72.83; Bax (Bax; 24-hour treatment at IC50 5.40 µM, control 33.85): 229.40 pg/mL and 229.40 ± 1.62 pg/mL; improvement in Bax values versus untreated control (Bax; 24 h, 5.40 µM): 6.8 fold; P53 (p53; 24-hour treatment at IC50 5.40 µM, control 139.65): 885.72 pg/mL and 885.72 ± 1.49 pg/mL; enhancement of p53 protein levels versus control (p53; 24 h, 5.40 µM): 6.3 times
COc1cccc2c1C(=O)c1c(O)c3c(c(O)c1C2=O)C[C@@](O)(C(=O)CO)C[C@@H]3O[C@H]1C[C@H](N)[C@H](O)[C@H](C)O1 [Doxorubicin, reference compound]	5.6 ± 0.3 µM	32.1 ± 3.1 µM	6.5 ± 0.5 µM	4.8 ± 0.5 µM	–	–	–
C#Cc1cccc(Nc2ncnc3cc(OCCOC)c(OCCOC)cc23)c1 [Erlotinib, reference compound]	–	–	–	–	–	–	IC50 (MCF-7 cell line; MCF7, 48 h): 4.3 ± 0.1 µM; IC50 (BJ-1 normal cell line; Fibroblast, 48 h): 58.3 ± 1.4 µM; IC50 (HCT-116 cell line; HCT-116, 48 h): 7.3 ± 0.2 µM; IC50 (HepG-2 cell line; HepG2, 48 h): 7.8 ± 0.2 µM
